Reference: PubChem BioAssay (NCI)
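All cell lines were grown in 96-well plates and treated with compound for 48 hours. Here, GI50 denotes the concentration required for 50% inhibition of growth. The concentration for full growth arrest is given as TGI.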

How the values were obtained:
Experiment in all cases: growth of human tumour cells (NCI), 48 h
[1] = tested on: SW-620 colon
[2] = tested on: A498 renal
[3] = tested on: UACC-257 melanoma
[4] = tested on: HCT-116 colon
[5] = tested on: HL-60(TB) leukemia
[6] = tested on: OVCAR-8 ovarian
[7] = tested on: KM12 colon
[8] = tested on: SR leukemia
[9] = tested on: MDA-MB-435
[10] = tested on: NCI/ADR-RES ovarian

Compound: COc1ccc(-c2cc(=O)c3ccccc3o2)cc1N
- TGI [1]: > 100 µM
- TGI [2]: > 100 µM
- TGI [3]: > 100 µM
- TGI [4]: > 100 µM
- TGI [5]: 47.9 µM
- TGI [6]: > 100 µM
- TGI [7]: > 100 µM

Compound: CC(C)[O-].CC(C)[O-].O=C1C=C([O-])C(=O)c2ccccc21.O=C1C=C([O-])C(=O)c2ccccc21.[Ti+4]
- GI50 [1]: 44.2 µM
- TGI [1]: > 100 µM
- GI50 [2]: > 100 µM
- TGI [2]: > 100 µM
- GI50 [3]: 4.97 µM
- TGI [3]: > 100 µM
- GI50 [4]: 43.7 µM
- TGI [4]: > 100 µM
- GI50 [5]: 17.4 µM
- TGI [5]: > 100 µM
- GI50 [6]: > 100 µM
- TGI [6]: > 100 µM
- GI50 [7]: > 81.4 µM
- TGI [7]: > 100 µM

Compound: O=C(CCc1nnc2s/c(=C\c3ccc(Cl)c(Cl)c3)c(=O)n12)Nc1ccc(Cl)c(Cl)c1
- TGI [1]: > 100 µM
- TGI [2]: > 100 µM
- TGI [3]: > 100 µM
- TGI [8]: 74 µM
- TGI [4]: > 100 µM
- TGI [5]: 64 µM
- TGI [6]: 43.6 µM
- TGI [7]: > 100 µM

Compound: O=C(Nc1ccc(Cl)cc1Cl)C1C(=O)C(=O)N(c2ccc(Cl)cc2Cl)C1=O (configuration not stated)
- TGI [1]: > 100 µM
- TGI [2]: > 100 µM
- TGI [3]: > 100 µM
- TGI [4]: > 100 µM
- TGI [5]: > 100 µM
- TGI [6]: > 100 µM
- TGI [7]: > 100 µM

Compound: O=C(O)c1ccc(Oc2nccc(-c3c(-c4ccc(F)cc4)ncn3C3CCNCC3)n2)cc1
- GI50 [1]: > 25 µM
- TGI [1]: > 25 µM
- GI50 [2]: > 25 µM
- TGI [2]: > 25 µM
- GI50 [4]: > 25 µM
- TGI [4]: > 25 µM
- GI50 [9]: > 25 µM
- TGI [9]: > 25 µM
- GI50 [5]: > 25 µM
- TGI [5]: > 25 µM
- GI50 [6]: > 25 µM
- TGI [6]: > 25 µM
- GI50 [7]: > 25 µM
- TGI [7]: > 25 µM
- GI50 [10]: > 25 µM
- TGI [10]: > 25 µM

Compound: COc1ccc2c3c([nH]c2c1[N+](=O)[O-])C(C)N(Cc1ccc([N+](=O)[O-])cc1)CC3 (configuration not stated)
- TGI [1]: > 100 µM
- TGI [2]: 63.7 µM
- TGI [3]: 61.5 µM
- TGI [8]: > 100 µM
- TGI [5]: 17.9 µM
- TGI [6]: 64.4 µM
- TGI [7]: 49.6 µM

Compound: COc1cc(OC)c(SSCCCCS(=O)O)c(OC)c1
- TGI [1]: 28.4 µM
- TGI [2]: 33.6 µM
- TGI [3]: 23.5 µM
- TGI [4]: 29.9 µM
- TGI [5]: 24.8 µM
- TGI [6]: 34.1 µM
- TGI [7]: 29.4 µM

Compound: COc1ccc(/C(COc2ccc3c(=O)c(-c4ccccc4)coc3c2)=N\O)cc1
- GI50 [1]: 2.37 µM
- TGI [1]: 16.9 µM
- GI50 [2]: 3.22 µM
- TGI [2]: 18.5 µM
- GI50 [3]: 17.9 µM
- TGI [3]: > 60 µM
- GI50 [4]: 18.3 µM
- TGI [4]: 44.6 µM
- GI50 [9]: 2.17 µM
- TGI [9]: 4.64 µM
- GI50 [5]: 0.119 µM
- TGI [5]: 2.2 µM
- GI50 [6]: 12.1 µM
- TGI [6]: 64.3 µM
- GI50 [7]: 1.5 µM
- TGI [7]: 40.4 µM
- GI50 [10]: 0.652 µM
- TGI [10]: 35.5 µM

Compound: CCOc1ccc(N=Cc2ccc3cc(C)ccc3n2)cc1
- TGI [1]: > 100 µM
- TGI [2]: > 100 µM
- TGI [3]: > 100 µM
- TGI [5]: 48 µM
- TGI [6]: > 100 µM
- TGI [7]: > 100 µM

Compound: Cc1cccc(C)c1NC(=O)C(=O)CC(=O)/C=C/c1ccccc1
- TGI [1]: > 100 µM
- TGI [2]: > 100 µM
- TGI [3]: > 100 µM
- TGI [4]: > 100 µM
- TGI [9]: > 100 µM
- TGI [5]: > 100 µM
- TGI [6]: > 100 µM
- TGI [7]: > 100 µM
- TGI [10]: > 100 µM

Compound: C/C=C1\C=C(OC)CN(CCc2c[nH]c3ccccc23)C1
- TGI [1]: > 100 µM
- TGI [2]: > 100 µM
- TGI [3]: > 100 µM
- TGI [8]: > 100 µM
- TGI [4]: > 100 µM
- TGI [5]: > 100 µM
- TGI [6]: > 100 µM
- TGI [7]: > 100 µM

Compound: CCN(CC)CCCNC(=O)C1COc2cc(-c3cc(=O)c4ccccc4o3)ccc2O1 (configuration not stated)
- TGI [1]: > 100 µM
- TGI [2]: > 100 µM
- TGI [3]: 50.1 µM
- TGI [8]: 47.9 µM
- TGI [4]: > 100 µM
- TGI [5]: > 100 µM
- TGI [6]: > 100 µM

Compound: Cc1ccccc1NC(=O)c1c(C)oc2c1C(=O)c1ccccc1C2=O
- TGI [1]: > 57.9 µM
- TGI [2]: > 100 µM
- TGI [3]: 52.7 µM
- TGI [8]: 75.5 µM
- TGI [4]: > 100 µM
- TGI [5]: 56.9 µM
- TGI [6]: > 100 µM
- TGI [7]: > 100 µM

Compound: Cn1nc(-c2ccccc2)c(C(=O)/C=C/c2ccc(Cl)cc2)c(N2CCCCC2)c1=O
- TGI [1]: 16.6 µM
- TGI [4]: 3.47 µM
- TGI [5]: 4 µM
- TGI [6]: 16.5 µM

Compound: CCOC(=O)N1c2c(ccn2C)-c2ccn(C)c2N1C(=O)OCC
- TGI [1]: 28.6 µM
- TGI [2]: > 100 µM
- TGI [8]: 43.8 µM
- TGI [4]: 29.4 µM
- TGI [5]: 26.7 µM
- TGI [6]: 27.9 µM
- TGI [7]: 57.3 µM

Compound: O=C1c2ccccc2-c2oc(=O)c3ccccc3c21
- TGI [1]: > 100 µM
- TGI [2]: > 100 µM
- TGI [3]: > 100 µM
- TGI [4]: > 100 µM
- TGI [9]: > 100 µM
- TGI [5]: > 100 µM
- TGI [6]: > 100 µM
- TGI [7]: > 100 µM
- TGI [10]: > 100 µM

Compound: O=C1O[C@H](c2ccccc2)[C@@H]2CC3(CCN12)OCCO3
- TGI [1]: > 100 µM
- TGI [2]: > 100 µM
- TGI [3]: > 100 µM
- TGI [8]: > 100 µM
- TGI [4]: > 100 µM
- TGI [5]: > 100 µM
- TGI [6]: > 100 µM
- TGI [7]: > 100 µM

Compound: CC(=O)OC[C@]1(C)CCCC2(C)C1CCC1C=C(C)[C@H]3CCC12C3 (some centres not stated)
- TGI [1]: > 100 µM
- TGI [3]: > 100 µM
- TGI [8]: > 100 µM
- TGI [4]: > 100 µM
- TGI [5]: > 100 µM
- TGI [6]: > 100 µM
- TGI [7]: > 100 µM

Compound: COc1ccc(-c2oc(=O)ccc2-c2cc(OC)c(OC)c(OC)c2)cc1O
- GI50 [1]: 0.612 µM
- TGI [1]: > 47.6 µM
- GI50 [2]: 2.57 µM
- TGI [2]: 28.1 µM
- GI50 [3]: 9.87 µM
- TGI [3]: > 100 µM
- GI50 [8]: 0.267 µM
- TGI [8]: > 23.8 µM
- GI50 [4]: 0.736 µM
- TGI [4]: > 86.6 µM
- GI50 [5]: 0.407 µM
- TGI [5]: 2.03 µM
- GI50 [6]: 4.34 µM
- TGI [6]: > 100 µM
- GI50 [7]: 0.507 µM
- TGI [7]: > 48.7 µM
- GI50 [10]: 1.48 µM
- TGI [10]: > 100 µM

Compound: CC(C)(C)CC(C)(C)c1cc2c(O)c(c1)Cc1cc(C(C)(C)CC(C)(C)C)cc(c1O)Cc1cc(C(C)(C)CC(C)(C)C)cc(c1O)Cc1cc(C(C)(C)CC(C)(C)C)cc(c1O)Cc1cc(C(C)(C)CC(C)(C)C)cc(c1O)C2
- TGI [1]: > 100 µM
- TGI [3]: > 100 µM
- TGI [4]: > 100 µM
- TGI [5]: > 100 µM
- TGI [6]: > 100 µM
- TGI [7]: > 100 µM

Compound: O=C(O)Cc1cc(=O)[nH]c2c1/C(=N/O)CCC2
- TGI [1]: > 100 µM
- TGI [3]: > 100 µM
- TGI [8]: > 100 µM
- TGI [5]: > 100 µM
- TGI [6]: > 100 µM
- TGI [7]: > 100 µM

Compound: CC(=O)[CH-]C(=O)c1ccccc1.CC(=O)[CH-]C(=O)c1ccccc1.CC(C)CCCC(C)[C@H]1CCC2[C@@H]3CC=C4C[C@@H]([O-])CC[C@]4(C)C3CC[C@@]21C.CC(C)CCCC(C)[C@H]1CCC2[C@@H]3CC=C4C[C@@H]([O-])CC[C@]4(C)C3CC[C@@]21C.[Ti+4] (some centres not stated)
- GI50 [1]: > 100 µM
- TGI [1]: > 100 µM
- GI50 [2]: > 100 µM
- TGI [2]: > 100 µM
- GI50 [3]: > 100 µM
- TGI [3]: > 100 µM
- GI50 [4]: > 100 µM
- TGI [4]: > 100 µM
- GI50 [6]: > 100 µM
- TGI [6]: > 100 µM
